# According to article PMC12216609, “Inhibitors of eIF1A-ribosome interaction unveil uORF-dependent regulation of translation initiation and antitumor and antiviral effects” (The EMBO Journal, 2025):
# pIC50: −log10 of the molar value. Several values for one entry are separate records, joined by “and”; a condition that tells them apart may be missing. Identical values can stand only once.
# Molecular target: NSP1 (Severe acute respiratory syndrome coronavirus 2, UniProt P0DTD1)
# Assay: not given
# Conditions: not given
SMILES,"GFP reporter ratio nsp1/gfp, avg","GFP reporter ratio nsp1/gfp, rep 1","gfp signal, mean of duplicate wells","nsp1 signal, mean of duplicate wells",ratio (nsp1/gfp)
Cc1ccc(C(=O)c2cc(O)c(O)c([N+](=O)[O-])c2)cc1 [1Ai-5576],0.4237,0.4237,2857,1210.5,0.424

# Molecular target: T1, eIF1A without CTT (Homo sapiens, UniProt P47813)
# T1 construct: His-bdSUMO (cleaved yes); made in house; host or cells: E. coli (BL-21)
# Assay: not given
# Type: binding
# Conditions: 1Ai conc. 0.25 uM; background-corrected, relative to DMSO or lowest 1Ai concentration; replicate columns
# T1 sequence (P47813 1-114 limits assumed): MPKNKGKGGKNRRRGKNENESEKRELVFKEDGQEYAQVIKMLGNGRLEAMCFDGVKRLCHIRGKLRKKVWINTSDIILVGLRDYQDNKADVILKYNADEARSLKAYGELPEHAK
row,SMILES,"fluorescence ratio, eIF1A Δ CTT"
1,Cc1ccc(C(=O)c2cc(O)c(O)c([N+](=O)[O-])c2)cc1 [1Ai-5576],0.7373 and 0.785

# Same assay, conditions: 1Ai conc. 0.5 uM; background-corrected, relative to DMSO or lowest 1Ai concentration; replicate columns
row,SMILES,"fluorescence ratio, eIF1A Δ CTT"
1,Cc1ccc(C(=O)c2cc(O)c(O)c([N+](=O)[O-])c2)cc1 [1Ai-5576],0.8173 and 0.7741

# Same assay, conditions: 1Ai conc. 1 uM; background-corrected, relative to DMSO or lowest 1Ai concentration; replicate columns
row,SMILES,"fluorescence ratio, eIF1A Δ CTT"
1,Cc1ccc(C(=O)c2cc(O)c(O)c([N+](=O)[O-])c2)cc1 [1Ai-5576],0.744 and 0.7009

# Same assay, conditions: 1Ai conc. 2 uM; background-corrected, relative to DMSO or lowest 1Ai concentration; replicate columns
row,SMILES,"fluorescence ratio, eIF1A Δ CTT"
1,Cc1ccc(C(=O)c2cc(O)c(O)c([N+](=O)[O-])c2)cc1 [1Ai-5576],0.6013 and 0.6558

# Same assay, conditions: 1Ai conc. 4 uM; background-corrected, relative to DMSO or lowest 1Ai concentration; replicate columns
row,SMILES,"fluorescence ratio, eIF1A Δ CTT"
1,Cc1ccc(C(=O)c2cc(O)c(O)c([N+](=O)[O-])c2)cc1 [1Ai-5576],0.5053 and 0.5218

# Same assay, conditions: 1Ai conc. 8 uM; background-corrected, relative to DMSO or lowest 1Ai concentration; replicate columns
row,SMILES,"fluorescence ratio, eIF1A Δ CTT"
1,Cc1ccc(C(=O)c2cc(O)c(O)c([N+](=O)[O-])c2)cc1 [1Ai-5576],0.4227 and 0.4252

# Same assay, conditions: 1Ai conc. 16 uM; background-corrected, relative to DMSO or lowest 1Ai concentration; replicate columns
row,SMILES,"fluorescence ratio, eIF1A Δ CTT"
1,Cc1ccc(C(=O)c2cc(O)c(O)c([N+](=O)[O-])c2)cc1 [1Ai-5576],0.332 and 0.3364

# Same assay, conditions: 1Ai conc. 32 uM; background-corrected, relative to DMSO or lowest 1Ai concentration; replicate columns
row,SMILES,"fluorescence ratio, eIF1A Δ CTT"
1,Cc1ccc(C(=O)c2cc(O)c(O)c([N+](=O)[O-])c2)cc1 [1Ai-5576],0.26 and 0.2352

# Same assay, conditions: 1Ai conc. 64 uM; background-corrected, relative to DMSO or lowest 1Ai concentration; replicate columns
row,SMILES,"fluorescence ratio, eIF1A Δ CTT"
1,Cc1ccc(C(=O)c2cc(O)c(O)c([N+](=O)[O-])c2)cc1 [1Ai-5576],0.208 and 0.1745

# Same assay, conditions: 1Ai conc. 256 uM; background-corrected, relative to DMSO or lowest 1Ai concentration; replicate columns
row,SMILES,"fluorescence ratio, eIF1A Δ CTT"
1,Cc1ccc(C(=O)c2cc(O)c(O)c([N+](=O)[O-])c2)cc1 [1Ai-5576],0.1973 and 0.1667

# Same assay, conditions: eIF1A Δ CTT; from the titration data; read-out: IC50 (eIF1A Δ CTT titration block)
row,SMILES,pIC50
1,Cc1ccc(C(=O)c2cc(O)c(O)c([N+](=O)[O-])c2)cc1 [1Ai-5576],5.27

# Same assay, conditions: summary table; fluorescence binding assay; read-out: IC50 concentration (µM), CTT truncation
row,SMILES,IC50 [µM]
1,Cc1ccc(C(=O)c2cc(O)c(O)c([N+](=O)[O-])c2)cc1 [1Ai-5576],5.4

# Molecular target: T2, eIF1A-RPS10 interaction (Homo sapiens, UniProt P46783+P47813)
# T2 construct: made in house; host or cells: E. coli BL21 (PRSFduet); unpurified lysate supernatant
# Assay: Split-Renilla luciferase eIF1A-RPS10 interaction screen, dose-response
# Type: biochemical
# Conditions: summary table; read-out: IC50 concentration (µM), IC50 screen
# Method in brief: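 Reconstituted Renilla luciferase activity reports eIF1A-RPS10 binding; loss indicates disruption by compound. Recombinant fusions (eIF1A C-terminus to N-RL; RPS10-ΔN-Renilla) expressed in E. coli BL21, used as sonicated supernatants in Tris/KCl/EDTA buffer, with unfused split-RL halves as controls.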
# T2 sequence (P47813 whole entry, one chain of several): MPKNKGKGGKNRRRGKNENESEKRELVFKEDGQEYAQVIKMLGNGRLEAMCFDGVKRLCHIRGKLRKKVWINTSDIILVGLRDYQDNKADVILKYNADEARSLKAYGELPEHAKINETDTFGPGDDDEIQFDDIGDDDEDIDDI
row,SMILES,IC50 [µM]
1,Cc1ccc(C(=O)c2cc(O)c(O)c([N+](=O)[O-])c2)cc1 [1Ai-5576],24

# Molecular target: T3, eIF1A without NTT (Homo sapiens, UniProt P47813)
# T3 construct: His-bdSUMO (cleaved yes); made in house; host or cells: E. coli (BL-21)
# Assay: Fluorescence binding assay with NTT-truncated eIF1A
# Conditions: not given
# T3 sequence (P47813 31-144 limits assumed): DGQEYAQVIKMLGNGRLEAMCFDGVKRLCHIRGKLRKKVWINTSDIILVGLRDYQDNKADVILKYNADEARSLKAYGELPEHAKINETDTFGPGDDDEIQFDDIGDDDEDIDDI
row,SMILES,binding to NTT-truncated eIF1A
1,Cc1ccc(C(=O)c2cc(O)c(O)c([N+](=O)[O-])c2)cc1 [1Ai-5576],significantly decreased

# Same assay, conditions: 1Ai conc. 0.25 uM; background-corrected, relative to DMSO or lowest 1Ai concentration; replicate columns
row,SMILES,"fluorescence ratio, eIF1A Δ NTT"
1,Cc1ccc(C(=O)c2cc(O)c(O)c([N+](=O)[O-])c2)cc1 [1Ai-5576],0.8023 and 0.892

# Same assay, conditions: 1Ai conc. 0.5 uM; background-corrected, relative to DMSO or lowest 1Ai concentration; replicate columns
row,SMILES,"fluorescence ratio, eIF1A Δ NTT"
1,Cc1ccc(C(=O)c2cc(O)c(O)c([N+](=O)[O-])c2)cc1 [1Ai-5576],0.7712 and 0.8267

# Same assay, conditions: 1Ai conc. 1 uM; background-corrected, relative to DMSO or lowest 1Ai concentration; replicate columns
row,SMILES,"fluorescence ratio, eIF1A Δ NTT"
1,Cc1ccc(C(=O)c2cc(O)c(O)c([N+](=O)[O-])c2)cc1 [1Ai-5576],0.7599 and 0.8722

# Same assay, conditions: 1Ai conc. 2 uM; background-corrected, relative to DMSO or lowest 1Ai concentration; replicate columns
row,SMILES,"fluorescence ratio, eIF1A Δ NTT"
1,Cc1ccc(C(=O)c2cc(O)c(O)c([N+](=O)[O-])c2)cc1 [1Ai-5576],0.7825 and 0.8608

# Same assay, conditions: 1Ai conc. 4 uM; background-corrected, relative to DMSO or lowest 1Ai concentration; replicate columns
row,SMILES,"fluorescence ratio, eIF1A Δ NTT"
1,Cc1ccc(C(=O)c2cc(O)c(O)c([N+](=O)[O-])c2)cc1 [1Ai-5576],0.6215 and 0.8636

# Same assay, conditions: 1Ai conc. 8 uM; background-corrected, relative to DMSO or lowest 1Ai concentration; replicate columns
row,SMILES,"fluorescence ratio, eIF1A Δ NTT"
1,Cc1ccc(C(=O)c2cc(O)c(O)c([N+](=O)[O-])c2)cc1 [1Ai-5576],0.5932 and 0.9091

# Same assay, conditions: 1Ai conc. 16 uM; background-corrected, relative to DMSO or lowest 1Ai concentration; replicate columns
row,SMILES,"fluorescence ratio, eIF1A Δ NTT"
1,Cc1ccc(C(=O)c2cc(O)c(O)c([N+](=O)[O-])c2)cc1 [1Ai-5576],0.5932 and 0.7358

# Same assay, conditions: 1Ai conc. 32 uM; background-corrected, relative to DMSO or lowest 1Ai concentration; replicate columns
row,SMILES,"fluorescence ratio, eIF1A Δ NTT"
1,Cc1ccc(C(=O)c2cc(O)c(O)c([N+](=O)[O-])c2)cc1 [1Ai-5576],0.5395 and 0.6733

# Same assay, conditions: 1Ai conc. 64 uM; background-corrected, relative to DMSO or lowest 1Ai concentration; replicate columns
row,SMILES,"fluorescence ratio, eIF1A Δ NTT"
1,Cc1ccc(C(=O)c2cc(O)c(O)c([N+](=O)[O-])c2)cc1 [1Ai-5576],0.7175 and 0.7159

# Same assay, conditions: 1Ai conc. 256 uM; background-corrected, relative to DMSO or lowest 1Ai concentration; replicate columns
row,SMILES,"fluorescence ratio, eIF1A Δ NTT"
1,Cc1ccc(C(=O)c2cc(O)c(O)c([N+](=O)[O-])c2)cc1 [1Ai-5576],0.4605 and 0.6165
